Patent US10765638B2, “Particle formulation with polycation complex” (Yale University, priority 2017, dated 2020)

Assays:
SKMG3-CD8-EGFR cells = test: Phospho-γH2AX foci formation; format: cell-based, human
Method: To determine histone H2AX phosphorylation (γH2AX), cells were cultured on glass cover slips and pre-treated with either vehicle or NGI-1 for 48 hours followed by radiation treatment. Samples were fixed with 4% neutral-buffered formaldehyde, washed (0.1% triton in PBS for 30 minutes) and incubated for 1 hour with protein-blocking solution (PBS containing 10% normal goat-horse serum; Sigma-Aldrich, Saint Louis, Mich., US). Next, the slides were incubated with primary anti-phospho-histone γH2AX S139 (1:500, Millipore-Upstate, Billerica, Mass., US) followed by incubation with secondary antibody Alexa Fluor 555-conjugated goat anti-mouse IgG (1:750, Molecular probes/Invitrogen, Carlsbad, Calif., US), for 1 hour at room temperature. Nuclei were stained using DAPI containing vectashield mounting solution (Vector Labs). Confocal cellular images were captured with an inverted Zeiss LSM 510 Pascal laser confocal microscope (C. Zeiss, Jenna, Germany), using a 63/1.4 plan-apochromat objective. Five randomly selected fields s per slide were analyzed. Cells were counted using the ImageJ program, public domain Java image processing software.
The CD8 cDNA was a gift from Paula Kavathas (Yale University). The CD8-EGFR was constructed according to a strategy that generated a constitutively active IGF-1R (24). […]

BEN = test: Lung cancer cell line viability screen; format: cell-based; conditions: NSCLC, read-out: NGI-1 (IC50)
Method: (§1) NGI-1 activity was screened in 94 lung cancer cell lines at the Center for Molecular Therapeutics at the Massachusetts General Hospital Center for Cancer Research with previously described methods (Garnett et al., Nature, 483(7391):570-5 (2012)). Briefly, cells were treated in 384-well microplates using 9 serial NGI-1 dilutions, returned to an incubator for 96 hours, then stained with 55 μg/ml resazurin (Sigma) prepared in Glutathione-free media for 4 hours. Fluorescent signal intensity was quantified with a plate reader at excitation and emission wavelengths of 535/595 nm to determine viability. Viability ratio across the 9 doses were fitted to determine the half maximal inhibitory concentration (IC50).

LC-1F = test: Lung cancer cell line viability screen; format: cell-based; conditions: NSCLC, read-out: NGI-1 (IC50)
Method: as §1

Calu-3 = test: Lung cancer cell line viability screen; format: cell-based; conditions: Homo sapiens; Calu-3, NSCLC, ErbB2 amplified; read-out: NGI-1 (IC50)
Method: as §1

EMC-BAC-1 = test: Lung cancer cell line viability screen; format: cell-based; conditions: EMC-BAC-1, NSCLC, ErBB3 Y523C; read-out: NGI-1 (IC50)
Method: as §1

NCI-H1838 = test: Lung cancer cell line viability screen; format: cell-based; conditions: Homo sapiens; NCI-H1838, NSCLC, EGFR amplified; read-out: NGI-1 (IC50)
Method: as §1

IST-SL2 = test: Lung cancer cell line viability screen; format: cell-based; conditions: IST-SL2, SCLC; 96 hours; read-out: NGI-1 (IC50)
Method: as §1

A-427 = test: Lung cancer cell line viability screen; format: cell-based; conditions: Homo sapiens; A-427, NSCLC; read-out: NGI-1 (IC50)
Method: as §1

RERF-LC-MS = test: Lung cancer cell line viability screen; format: cell-based; conditions: NSCLC, read-out: NGI-1 (IC50)
Method: as §1

RERF-LC-Sq1 = test: Lung cancer cell line viability screen; format: cell-based; conditions: RERF-LC-Sq1, NSCLC; read-out: NGI-1 (IC50)
Method: as §1

NCI-H2110 = test: Lung cancer cell line viability screen; format: cell-based; conditions: NCI-H2110, SCLC; read-out: NGI-1 (IC50)
Method: as §1

PC-3 [JPC-3] = test: Lung cancer cell line viability screen; format: cell-based; conditions: NSCLC, EGFR 747-749 del, read-out: NGI-1 (IC50)
Method: as §1

HCC827-GR cells = test: Confocal microscopy of EGFR and phosphorylated MET localization; format: cell-based; conditions: detected in control samples
Method: For immunofluorescence, HCC827-GR cell lines were grown on glass coverslips to 80% confluence. Cell cultures were washed with PBS and fixed with 4% (w/v) formaldehyde in PBS for 30 min at 37° C. After washing with PBS, cells were permeabilized with 0.1% v/v Triton X-100 in PBS for 10 min, rinsed three times in PBS and treated with 5% w/v bovine serum albumin for 1 h. Cells were then incubated overnight at 4° C. with mouse anti-EGFR pAb (sc-03; Santa Cruz Biotechnology; 1:800) and rabbit anti-MET mAb (Cell Signaling; 1:1,000) primary antibodies and for 1 h at room temperature with either Alexa Fluor 543-conjugated goat anti-rabbit IgG or Alexa Fluor 488-conjugated goat anti-mouse IgG (ThermoFisher Scientific; 1:1,000) secondary antibodies. All antibodies were diluted in PBS containing 5% w/v bovine serum albumin. Nuclei were stained using ToPro3 (Invitrogen). Confocal cellular images were captured with an inverted Zeiss LSM 510 Pascal laser confocal microscope (Carl Zeiss, Jenna, Germany), using a 63/1.4 Plan-Apochromat objective.

PC9-GR cells = test: Apoptosis by Annexin V flow cytometry; format: cell-based; conditions: NGI-1 treatment alone
Method: (§2) Briefly, 1×10^6 cells/sample were collected, washed in PBS, pelleted, and resuspended in incubation buffer (10 mm HEPES/NaOH, pH 7.4, 140 mm NaCl, 2.5 mm CaCl2) containing 1% annexin V and 1% 7-Amino-actinomycin D or propidium iodide, to identify dead cells. […] First-line analysis was performed with Flow Jo software. Approximately 50,000 cells were analyzed per experiment, and the mean value was obtained from 3 independent assays.

parental PC9 cells = test: Apoptosis by Annexin V flow cytometry; format: cell-based; conditions: NGI-1 10 μM, 48 h
Method: as §2

H3255 = conditions: Lopez-Sambrooks et al., Nat Chem Biol. 2016; cited from earlier work

For Cc1cnc(NC(=O)c2cc(S(=O)(=O)N(C)C)ccc2N2CCCC2)s1 [NGI-1, 5-(dimethylsulfamoyl)-N-(5-methyl-1,3-thiazol-2-yl)-2-(pyrrolidin-1-yl)benzamide], the phospho-γH2AX foci formation (SKMG3-CD8-EGFR cells) was “no effect”, the IC50 (BEN) was 9.72 µM and the IC50 (LC-1F) was 7.94 µM. It also gave an IC50 (Calu-3) of 8.71 µM, an IC50 (EMC-BAC-1) of 4.1 µM and an IC50 (NCI-H1838) of 4.29 µM. It also gave an IC50 (IST-SL2) of 2.63 µM, an IC50 (A-427) of 4.92 µM and an IC50 (RERF-LC-MS) of 8.07 µM. For the same molecule, the IC50 (RERF-LC-Sq1) was 7.39 µM, the IC50 (NCI-H2110) was 9.01 µM and the IC50 (PC-3 [JPC-3]) was 4.9 µM. For the same molecule, the “EGFR detected near the cell surface” value (HCC827-GR cells) was “not in NGI-1 treated samples”, the induction of apoptosis (PC9-GR cells) was “no pro-apoptotic effect” and the induction of apoptosis (parental PC9 cells) was “does not induce apoptosis”. For the same molecule, the H3255 proliferation (H3255) was “significantly inhibits”.
